Results from US5656256A (The University of North Carolina at Chapel Hill, priority 1994, dated 1997).

Tests used:
[1] = biological target: T1, airway epithelial Na+ channels (Homo sapiens, UniProt P37088+P51168+P51170); test: Short-circuit current (Isc) measurement of sodium transport in cultured human nasal epithelium, Ussing chamber; type: cell-based; details: for concentration achieving the same level of complete sodium channel blocking, less than amiloride: apical surface of human nasal epithelium, relative to amiloride
T1 construct: Cells from freshly excised specimens are protease isolated; endogenous in cells
T1 sequence (P37088 1-669): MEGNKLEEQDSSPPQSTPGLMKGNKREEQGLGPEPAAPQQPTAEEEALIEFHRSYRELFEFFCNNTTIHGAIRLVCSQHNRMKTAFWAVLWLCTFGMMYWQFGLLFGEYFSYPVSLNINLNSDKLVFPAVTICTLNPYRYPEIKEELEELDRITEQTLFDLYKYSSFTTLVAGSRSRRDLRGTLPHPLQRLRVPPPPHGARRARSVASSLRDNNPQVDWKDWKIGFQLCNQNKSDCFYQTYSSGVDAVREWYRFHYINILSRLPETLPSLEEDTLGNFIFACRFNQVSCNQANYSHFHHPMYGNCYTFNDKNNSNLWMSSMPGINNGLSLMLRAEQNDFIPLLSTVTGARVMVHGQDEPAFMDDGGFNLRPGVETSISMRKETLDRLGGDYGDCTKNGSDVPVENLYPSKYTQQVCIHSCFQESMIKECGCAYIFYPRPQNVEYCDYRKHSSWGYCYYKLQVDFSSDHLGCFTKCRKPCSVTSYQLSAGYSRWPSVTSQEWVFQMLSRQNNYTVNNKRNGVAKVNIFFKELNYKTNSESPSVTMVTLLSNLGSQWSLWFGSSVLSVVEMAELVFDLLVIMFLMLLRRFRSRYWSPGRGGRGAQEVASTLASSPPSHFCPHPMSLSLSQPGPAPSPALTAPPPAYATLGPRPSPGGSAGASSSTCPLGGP
T1 sequence (P51168 1-640): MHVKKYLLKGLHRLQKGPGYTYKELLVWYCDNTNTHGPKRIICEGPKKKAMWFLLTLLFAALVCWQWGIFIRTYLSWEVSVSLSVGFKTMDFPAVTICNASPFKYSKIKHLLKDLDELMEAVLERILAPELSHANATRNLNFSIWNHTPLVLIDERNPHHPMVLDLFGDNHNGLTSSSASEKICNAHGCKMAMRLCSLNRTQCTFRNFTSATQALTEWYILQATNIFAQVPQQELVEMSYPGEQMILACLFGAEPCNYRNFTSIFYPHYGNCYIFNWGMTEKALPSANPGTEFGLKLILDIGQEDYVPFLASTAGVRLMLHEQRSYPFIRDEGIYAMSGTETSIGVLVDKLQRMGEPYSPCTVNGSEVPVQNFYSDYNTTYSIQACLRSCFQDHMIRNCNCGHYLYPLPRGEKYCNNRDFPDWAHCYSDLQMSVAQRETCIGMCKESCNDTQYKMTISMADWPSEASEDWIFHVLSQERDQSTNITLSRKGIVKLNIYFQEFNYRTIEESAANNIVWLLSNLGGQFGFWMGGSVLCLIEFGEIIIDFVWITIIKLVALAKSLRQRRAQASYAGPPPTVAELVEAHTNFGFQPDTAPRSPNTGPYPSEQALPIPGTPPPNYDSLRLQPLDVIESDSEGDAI
T1 sequence (P51170 1-649): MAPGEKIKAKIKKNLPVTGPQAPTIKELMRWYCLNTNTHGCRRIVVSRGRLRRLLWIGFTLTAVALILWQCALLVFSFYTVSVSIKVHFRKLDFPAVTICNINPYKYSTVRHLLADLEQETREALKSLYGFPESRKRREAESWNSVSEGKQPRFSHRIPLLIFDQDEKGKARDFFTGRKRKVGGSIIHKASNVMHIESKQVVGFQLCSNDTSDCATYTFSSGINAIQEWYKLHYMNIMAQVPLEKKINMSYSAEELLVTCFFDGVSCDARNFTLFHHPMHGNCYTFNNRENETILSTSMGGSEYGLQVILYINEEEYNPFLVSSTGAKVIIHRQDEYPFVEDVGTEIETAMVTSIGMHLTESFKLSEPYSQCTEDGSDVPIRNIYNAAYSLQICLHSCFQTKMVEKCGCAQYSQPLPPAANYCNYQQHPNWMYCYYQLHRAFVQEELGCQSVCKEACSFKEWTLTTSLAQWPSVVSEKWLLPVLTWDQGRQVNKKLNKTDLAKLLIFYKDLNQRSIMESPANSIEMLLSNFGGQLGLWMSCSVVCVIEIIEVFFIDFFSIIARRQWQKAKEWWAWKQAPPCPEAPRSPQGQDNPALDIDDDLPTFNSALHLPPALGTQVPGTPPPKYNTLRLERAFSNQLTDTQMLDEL
Procedure: The cell culture procedures used in this example are performed as described in Willumsen, N. J., et al., Am. J. Physiol. 256:C1033-C1044 (Cell. Physiol. 25) (1989) and Yankaskas, J. R., et al., Am. Rev. Respir. Dis. 132:1281-1287 (1985). Cells from freshly excised specimens are protease isolated with protease XIV (Sigma, St, Louis, Mo.), concentrated,and plated on collagen membranes in the bottom of plastic-tissue culture cups. The cells are fed for 5 days with serum-free F-12 medium containing the following additives (F-12/7X): insulin, epidermal growth factor, cholera toxin, transferrin, hydrocortisone, triiodothyronine, and endothelial cell growth substance. Subsequently, they are fed with F-12/7X media supplemented (1:1) with 3T3 fibroblast-conditioned media containing 1% fetal bovine serum. After the fifth day in culture, the transepithelial potential difference (PD) developed by the culture is measured daily to detect the occurrence of confluency. Cell preparations are routinely studied within 1 day of the development of the maximal PD.
J. Physiol. (Cell Physiol. 25) 256:C1033-C1053 (1989).
The tissue preparation described in Example 1 is mounted in a modified (superfusion, not recirculating), miniature Ussing chamber interfaced to a voltage clamp that measures transepithelial PD and the PD response to constant current (I) pulses. The chamber contains 1 ml of bathing solution for each (apical; basolateral) surface of the preparation. The solution used as the vehicle for drug delivery is a Krebs bicarbonate Ringer solution (KBR) which approximates the ionic composition of plasma. This solution is warmed (37°) and gassed (95% oxygen, 5% CO2) to maintain pH 7.4. The cultured cells are superfused on both surfaces with KBR.
The measurement of sodium transport rates is performed by recording the spontaneous transepithelial PD (Vt) and responses of the PD to constant current pulses. From the relationship between Vt and induced Vt deflections, the transepithelial resistance (Rt) is calculated. The short-circuit current (Isc), or measure of sodium transport rate, is determined as Isc =Vt /Rt.
Each cultured human airway epithelial preparation is exposed to different concentrations (10^-8 M-10^-3 M) of a sodium-channel blocking drug on either the basolateral or apical surface for the dose response studies. To construct concentration-effect relationships of the response to the drugs, it was assumed that the same maximum response to a drug could be induced from each tissue culture preparation from the same individual.

[2] = biological target: T1, airway epithelial Na+ channels; test: Persistence of Na+ absorption blockade after washout of drug, Ussing chamber; type: cell-based; details: 10^-5 M for 5 minutes to the luminal surface, then KBR perfusion; time for Isc to return to basal
From the text: In vivo, drug is delivered to the lungs as a single bolus. […] This Example illustrates the contribution of binding of drug to the target site (2) to the duration of drug action.
A protocol was designed to measure the duration of drug action after removal of drug from the airway surface liquid compartment. For this protocol, human airway epithelial preparations as described in Example 1 are mounted in modified Ussing chambers and interfaced to voltage clamps as described above in Example 2. Basal measurements of Isc in KBR are made and the steady state response to a 5 minute administration of a single maximal effective concentration (10^-5 M) of drug delivered to the luminal surface is measured. Following this step, administration of the drug is stopped, the lumen is perfused with standard KBR solutions, and the time required for Isc to return to baseline or basal levels is measured.

## N=C(N)NC(=O)c1nc(Cl)c(N)nc1N [amiloride]
[1]; steady-state inhibition of Na+ transport, human nasal epithelia
  potency as blocker of apical Na+ channels (in words): significantly less potent than benzamil or phenamil

## NC(=NCc1ccccc1)NC(=O)c1nc(Cl)c(N)nc1N [benzamil, 3,5-diamino-6-chloro-N-(benzylaminoaminomethylene)pyrazinecarboxamide]
[1]
  concentration achieving the same level of complete sodium channel blocking, less than amiloride: approximately one
  potency compared to amiloride (more potent by): 1-1.5 log-concentration units
[2]
  duration of activity after washout compared to amiloride: almost twice as long as amiloride

## NC(=Nc1ccccc1)NC(=O)c1nc(Cl)c(N)nc1N [phenamil, 3,5-diamino-6-chloro-N-(phenylaminoaminomethylene)pyrazinecarboxamide]
[1]
  concentration achieving the same level of complete sodium channel blocking, less than amiloride: approximately one
  potency compared to amiloride (more potent by): 1-1.5 log-concentration units
[2]
  duration of activity after washout compared to amiloride: almost twice as long as amiloride
